Reference: publication PMC5099976 (ACS chemical biology, 2016)

How the values were obtained:
[1] = target: WT genotype 1a NS3/4A protease (Hepatitis C virus genotype 1a, UniProt P27958, C1073S/C1078L/C1185S/I1043Q/I1044E/I1098T/L1039E/L1040E/L1047Q/N1200S/T1100M/T1173A); test: Isothermal titration calorimetry, WT protease; format: binding; conditions: for Ki: WT protease, Table S4
[2] = target: A156T NS3/4A protease variant (Hepatitis C virus genotype 1a, UniProt P27958, A1182T/C1073S/C1078L/C1185S/I1043Q/I1044E/I1098T/L1039E/L1040E/L1047Q/N1200S/T1100M/T1173A/V1687N); format: binding; conditions: binding A156T protease; ITC at 25 °C
[3] = test system: A156T NS3/4A protease variant; format: binding, Hepatitis C Virus; conditions: A156T relative to WT; Table S4
[4] = binding WT protease, ITC at 25 °C

Structure (SMILES) | Ki [1] [nM] | Ki ([1]; listed as P1–P3) [nM] | enthalpy of binding [1, 4] [kcal/mol] | entropic contribution to binding (−TΔS) [1, 4] [kcal/mol] | enthalpy of binding [2] [kcal/mol] | enthalpic change due to A156T mutation [3] [kcal/mol] | entropic loss due to A156T mutation [3] [kcal/mol]
CCc1nc2ccc(OC)cc2nc1O[C@@H]1C[C@H]2C(=O)N[C@]3(C(=O)NS(=O)(=O)C4CC4)C[C@H]3/C=C\CCCCC[C@H](NC(=O)OC(C)(C)C)C(=O)N2C1 [5172-mcP1P3] | 1.96 | 2 | -5.8 | -6.0 | -6.3 | -0.5 | 3.3
C=C[C@@H]1C[C@]1(NC(=O)[C@@H]1C[C@@H]2CN1C(=O)[C@H](C(C)(C)C)NC(=O)O[C@@H]1C[C@H]1CCCCCc1nc3ccc(OC)cc3nc1O2)C(=O)NS(=O)(=O)C1CC1 [MK-5172, reference compound] |  |  |  |  |  | 2.7 | 2.2
